Assay results as given in PubChem BioAssay AID2060612 (Molecular Pharmacology Branch, DTP, NCI, 2025).
pIC50: −log10 of the molar value.

System: 565232-114-T-J1-PDC complex spheroid viability
Experiment: Anticancer human tumor 565232-114-T-J1-PDC patient-derived bladder carcinoma cell line growth inhibition [CLK]
Details: for viability, T/C: stronger effect = lower value
Summary of the method: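 Multi-cell-type spheroids combined patient-derived tumor cells with HUVEC endothelial cells and human mesenchymal stem cells. Paired agents were dosed in half-log steps down from about clinical Cmax, or from 10 microM where Cmax was unknown.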

[1] = curve of first compound, second compound 0.0316 µM
[2] = curve of first compound, second compound 0.1 µM
[3] = curve of first compound, second compound 0.316 µM
[4] = curve of first compound, second compound 1 µM
[5] = curve of first compound, second compound 3.16 µM
[6] = curve of first compound, second compound 10 µM
[7] = second compound 0.0316 µM, first compound 0.0316 µM
[8] = second compound 0.0316 µM, first compound 0.1 µM
[9] = second compound 0.0316 µM, first compound 0.316 µM
[10] = second compound 0.0316 µM, first compound 1 µM
[11] = second compound 0.0316 µM, first compound 3.16 µM
[12] = second compound 0.0316 µM, first compound 10 µM
[13] = second compound 0.1 µM, first compound 0.0316 µM
[14] = second compound 0.1 µM, first compound 0.1 µM
[15] = second compound 0.1 µM, first compound 0.316 µM
[16] = second compound 0.1 µM, first compound 1 µM
[17] = second compound 0.1 µM, first compound 3.16 µM
[18] = second compound 0.1 µM, first compound 10 µM
[19] = second compound 0.316 µM, first compound 0.0316 µM
[20] = second compound 0.316 µM, first compound 0.1 µM
[21] = second compound 0.316 µM, first compound 0.316 µM
[22] = second compound 0.316 µM, first compound 1 µM
[23] = second compound 0.316 µM, first compound 3.16 µM
[24] = second compound 0.316 µM, first compound 10 µM
[25] = second compound 1 µM, first compound 0.0316 µM
[26] = second compound 1 µM, first compound 0.1 µM
[27] = second compound 1 µM, first compound 0.316 µM
[28] = second compound 1 µM, first compound 1 µM
[29] = second compound 1 µM, first compound 3.16 µM
[30] = second compound 1 µM, first compound 10 µM
[31] = second compound 3.16 µM, first compound 0.0316 µM
[32] = second compound 3.16 µM, first compound 0.1 µM
[33] = second compound 3.16 µM, first compound 0.316 µM
[34] = second compound 3.16 µM, first compound 1 µM
[35] = second compound 3.16 µM, first compound 3.16 µM
[36] = second compound 3.16 µM, first compound 10 µM
[37] = second compound 10 µM, first compound 0.0316 µM
[38] = second compound 10 µM, first compound 0.1 µM
[39] = second compound 10 µM, first compound 0.316 µM
[40] = second compound 10 µM, first compound 1 µM
[41] = second compound 10 µM, first compound 3.16 µM
[42] = second compound 10 µM, first compound 10 µM
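Note: spheroids exposed to compounds for 7 days before readout.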
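Throughout, for viability, T/C: 100% = DMSO vehicle wells with luminescence normalized to vehicle control.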

COC1C=CCC(C)C(C)S(=O)(=O)NC(=O)c2ccc3c(c2)N(CC2CCC21)CC1(CCCc2cc(Cl)ccc21)CO3 (stereo not drawn) + CNC(=O)c1ccc(Nc2nc(OC3CCCC3)c3c(-c4ccc5nc(C)oc5c4)c[nH]c3n2)c(OC)c1
pIC50 [1]: 6.16 | pIC50 [2]: > 7.50 | pIC50 [3]: > 7.50 | pIC50 [4]: > 7.50 | pIC50 [5]: > 7.50 | pIC50 [6]: > 7.50 | viability, T/C [7]: 89.9% | viability, T/C [8]: 103% | viability, T/C [9]: 85.8% | viability, T/C [10]: 33.2% | viability, T/C [11]: 6.83% | viability, T/C [12]: 3.49% | viability, T/C [13]: 43.1% | viability, T/C [14]: 36.9% | viability, T/C [15]: 24.7% | viability, T/C [16]: 19.2% | viability, T/C [17]: 7.48% | viability, T/C [18]: 5.14% | viability, T/C [19]: 24.4% | viability, T/C [20]: 19.1% | viability, T/C [21]: 16.4% | viability, T/C [22]: 9.76% | viability, T/C [23]: 5.62% | viability, T/C [24]: 3.86% | viability, T/C [25]: 15.8% | viability, T/C [26]: 14.5% | viability, T/C [27]: 13.3% | viability, T/C [28]: 7.06% | viability, T/C [29]: 4.08% | viability, T/C [30]: 2.86% | viability, T/C [31]: 11.4% | viability, T/C [32]: 11% | viability, T/C [33]: 7.5% | viability, T/C [34]: 4.35% | viability, T/C [35]: 2.97% | viability, T/C [36]: 3% | viability, T/C [37]: 14.1% | viability, T/C [38]: 9.12% | viability, T/C [39]: 6.08% | viability, T/C [40]: 5.45% | viability, T/C [41]: 3.56% | viability, T/C [42]: 3.09%

CC(CO)NC(=O)c1cc(-c2ccc(Cl)cc2)nn(-c2cnn(C)c2)c1=O (stereo not drawn) + CN1CCN(c2cc(C(=O)Nc3cc4cc(-c5cnn(C)c5)ccc4cn3)ccn2)CC1
pIC50 [1]: < 5.00 | pIC50 [2]: < 5.00 | pIC50 [3]: > 7.50 | pIC50 [4]: > 7.50 | pIC50 [5]: > 7.50 | pIC50 [6]: > 7.50 | viability, T/C [7]: 104% | viability, T/C [8]: 73.7% | viability, T/C [9]: 86.5% | viability, T/C [10]: 86.2% | viability, T/C [11]: 93.7% | viability, T/C [12]: 103% | viability, T/C [13]: 92% | viability, T/C [14]: 91% | viability, T/C [15]: 96.7% | viability, T/C [16]: 89.7% | viability, T/C [17]: 124% | viability, T/C [18]: 120% | viability, T/C [19]: 22.2% | viability, T/C [20]: 21% | viability, T/C [21]: 27.3% | viability, T/C [22]: 23.4% | viability, T/C [23]: 24.6% | viability, T/C [24]: 26.9% | viability, T/C [25]: 0.2% | viability, T/C [26]: 2.31% | viability, T/C [27]: 1.11% | viability, T/C [28]: 0.21% | viability, T/C [29]: 2.03% | viability, T/C [30]: 3.08% | viability, T/C [31]: 0.21% | viability, T/C [32]: 0.65% | viability, T/C [33]: 4.15% | viability, T/C [34]: 0.22% | viability, T/C [35]: 2.88% | viability, T/C [36]: 2.53% | viability, T/C [37]: 0.26% | viability, T/C [38]: 0.28% | viability, T/C [39]: 2.2% | viability, T/C [40]: 1.23% | viability, T/C [41]: 4.13% | viability, T/C [42]: 3.6%

Cn1ncnc1[C@H]1c2n[nH]c(=O)c3cc(F)cc(c23)N[C@@H]1c1ccc(F)cc1 + CNC(=O)c1ccc(Nc2nc(OC3CCCC3)c3c(-c4ccc5nc(C)oc5c4)c[nH]c3n2)c(OC)c1
pIC50 [1]: < 7.00 | pIC50 [2]: > 9.50 | pIC50 [3]: > 9.50 | pIC50 [4]: > 9.50 | pIC50 [5]: > 9.50 | pIC50 [6]: > 9.50 | viability, T/C (second compound 0.0316 µM, first compound 0.000316 µM): 107% | viability, T/C (second compound 0.0316 µM, first compound 0.001 µM): 81.8% | viability, T/C (second compound 0.0316 µM, first compound 0.00316 µM): 94.9% | viability, T/C (second compound 0.0316 µM, first compound 0.01 µM): 95% | viability, T/C [7]: 84.8% | viability, T/C [8]: 53.2% | viability, T/C (second compound 0.1 µM, first compound 0.000316 µM): 50% | viability, T/C (second compound 0.1 µM, first compound 0.001 µM): 44.4% | viability, T/C (second compound 0.1 µM, first compound 0.00316 µM): 53.3% | viability, T/C (second compound 0.1 µM, first compound 0.01 µM): 43.6% | viability, T/C [13]: 34.7% | viability, T/C [14]: 23.3% | viability, T/C (second compound 0.316 µM, first compound 0.000316 µM): 31.4% | viability, T/C (second compound 0.316 µM, first compound 0.001 µM): 29.8% | viability, T/C (second compound 0.316 µM, first compound 0.00316 µM): 30.4% | viability, T/C (second compound 0.316 µM, first compound 0.01 µM): 26.4% | viability, T/C [19]: 25.7% | viability, T/C [20]: 15.4% | viability, T/C (second compound 1 µM, first compound 0.000316 µM): 21.9% | viability, T/C (second compound 1 µM, first compound 0.001 µM): 22.3% | viability, T/C (second compound 1 µM, first compound 0.00316 µM): 20% | viability, T/C (second compound 1 µM, first compound 0.01 µM): 16.9% | viability, T/C [25]: 22.2% | viability, T/C [26]: 15.7% | viability, T/C (second compound 3.16 µM, first compound 0.000316 µM): 12.3% | viability, T/C (second compound 3.16 µM, first compound 0.001 µM): 20.6% | viability, T/C (second compound 3.16 µM, first compound 0.00316 µM): 18.7% | viability, T/C (second compound 3.16 µM, first compound 0.01 µM): 16.4% | viability, T/C [31]: 20.2% | viability, T/C [32]: 12.4% | viability, T/C (second compound 10 µM, first compound 0.000316 µM): 20.4% | viability, T/C (second compound 10 µM, first compound 0.001 µM): 16.1% | viability, T/C (second compound 10 µM, first compound 0.00316 µM): 20.3% | viability, T/C (second compound 10 µM, first compound 0.01 µM): 19.5% | viability, T/C [37]: 17.8% | viability, T/C [38]: 11.4%

COc1c(OCCCN2CCOCC2)ccc2c3n(c(=NC(=O)c4cnc(N)nc4)nc12)CCN3
viability, T/C (compound 0.00316 µM): 97.1% | viability, T/C (compound 0.01 µM): 78.6% | viability, T/C (compound 0.0316 µM): 101% | viability, T/C (compound 0.1 µM): 103% | viability, T/C (compound 0.316 µM): 120% | viability, T/C (compound 1 µM): 66.1% | pIC50 (curve of compound): < 6.00
